Values of other authors, collected in US8637672B2 (Deciphera Pharmaceuticals, LLC, priority 2010, dated 2014).

Biological target: VEGFR-2 (KDR kinase) (Homo sapiens, UniProt P35968, DEL940-989/E990V)
Details: values published in the '188/'556 applications; cited from earlier work

VEGFR-2 (KDR kinase), sequence (P35968 with tags, fused parts or gaps DEL940-989/E990V): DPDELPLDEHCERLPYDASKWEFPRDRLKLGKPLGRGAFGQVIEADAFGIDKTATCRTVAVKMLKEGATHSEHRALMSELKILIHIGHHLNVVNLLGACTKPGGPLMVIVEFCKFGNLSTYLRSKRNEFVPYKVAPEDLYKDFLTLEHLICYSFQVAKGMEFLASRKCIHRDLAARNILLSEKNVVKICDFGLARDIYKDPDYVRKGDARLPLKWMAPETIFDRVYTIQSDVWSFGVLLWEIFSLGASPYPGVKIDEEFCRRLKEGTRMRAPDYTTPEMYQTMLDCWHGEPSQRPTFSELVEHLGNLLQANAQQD

SMILES: CN1CCN(C2CCN(C(=O)Nc3cc(Oc4ccc(NC(=O)C5(C(=O)Nc6ccc(F)cc6)CC5)c(F)c4)ccn3)CC2)CC1 [Compound F]
- IC50: 240 nM
